Data: US10322123B2, “Compound for anti-cancer therapy that acts by targeting GOF mutant P53 and stimulates P73 to restore the P53 pathway signaling” (The Penn State Research Foundation, priority 2014, dated 2019)

How the values were obtained:
[1] = tested on: p53 transcriptional activity; experiment: p53-responsive luciferase reporter bioluminescence imaging; assay type: cell-based, human; settings: for 1/slope of dose-dependent p53-responsive reporter bioluminescence: 24 hr
Description: Functional cell-based screening for small molecules that can increase p53-transcriptional activity was performed using noninvasive bioluminescence imaging in human colorectal cancer cells (SW480, DLD-1, HCT116 and p53-null HCT116) that stably express a p53-regulated reporter, as previously described (Wang W, et al., Proc Natl Acad Sci USA 2006; 103: 11003-8). Cells were seeded in 96-well plates at a density of 5×10^4 cells/well. […] Cells treated with 5 μM of Prodigiosin were used as a positive control, and DMSO treatment was used as a negative control in each screened plate. The bioluminescence in each treatment was normalized to DMSO treatment.
SW480, DLD-1, HCT116 and p53-null HCT116 cells which stably express a p53-regulated luciferase reporter were generated as previously described (Wang et al., 2006, Proc. Natl. Acad. Sci. USA 103:11003-11008; Wang et al., 2003, Cancer Biol. Ther. 2:196-202). MRCS, Wi38, Hop92 and RXF393 were obtained from ATCC and cultured as recommended. Cells were regularly authenticated by bioluminescence, growth and morphological observation.

p21, Puma, DR5 and Noxa = experiment: Western blot of p53 target gene proteins; assay type: cell-based, human
Description: (§1) Proteins were extracted from cells and electrophoresed through 4-12% SDS-PAGE then transferred to PVDF membranes. The primary antibodies indicated in the figures were incubated with the transferred PVDF in blocking buffer at 4° C. overnight. Antibody binding was detected on PVDF with appropriate IRDye-secondary antibodies (LI-COR Biosciences, USA) by the ODYSSEY infrared imaging system.

RXF393 cells = experiment: Flow cytometry sub-G1 DNA content; assay type: cell-based, human; settings: 50 μM, 8 hours
Description: (§2) Cells were treated with NSC59984 or other drugs. Seventy-two hours after treatment, the cells were fixed with ethanol and stained with Propidium Iodide (PI). The samples were then subjected to analysis by an Epics Elite flow cytometer to measure the DNA content of the stained cells.

cancer cells = experiment: Flow cytometry sub-G1 DNA content; assay type: cell-based, human; settings: 72 hr
Description: as §2

normal cells = experiment: Flow cytometry sub-G1 DNA content; assay type: cell-based, human; settings: 25 μM, 72 hr
Description: as §2

DLD-1 cells = experiment: Flow cytometry sub-G1 DNA content; assay type: cell-based, human
Description: as §2
Cells were infected with retrovirus containing the pSIREN-REtrpcQ retroviral vector recombinant with TAp73 RNAi. Cells were cultured with blasticidin for several weeks, and blasticidin-resistant clones were selected. Knock-down of p73 was detected by measuring p73 protein levels by Western blot with anti-p73 antibody (Bethyl laboratories Inc. USA).

γH2AX = experiment: Genotoxicity measured by γH2AX; assay type: cell-based, human
Description: as §1

mutant p53 [2] = assay type: cell-based, human
Description: The primary antibodies indicated in the figures were incubated with the transferred PVDF in blocking buffer at 4° C. overnight. Antibody binding was detected on PVDF with appropriate IRDye-secondary antibodies (LI-COR Biosciences, USA) by the ODYSSEY infrared imaging system.

wild-type p53 = experiment: Wild-type p53 protein level Western blot; assay type: cell-based, human; settings: 8 hr
Description: as §1

mutant p53 [3] = experiment: Ubiquitination of mutant p53 (immunoprecipitation); assay type: cell-based, human; settings: cancer cells treated with NSC59984 and MG132, 16 hr
Description: Five hundred micrograms of cell lysate were incubated with 2 μg of antibody overnight at 4° C. Then, 25 μl of protein A-Sepharose beads were added to the lysates. The immunoprecipitated proteins were eluted from protein A-Sepharose beads by boiling with 2× sample buffer and subjected to SDS-PAGE.
as §1

mutant p53 mRNA = experiment: Mutant p53 mRNA qRT-PCR; assay type: cell-based, human; settings: SW480 cells, 3 hr or 16 hr, compared to DMSO control
Excerpt: Total RNA was isolated from cells using RNeasy mini kit (Qiagen, USA) by the recommended protocol. Reverse transcription used SuperScript II first-strand synthesis system (Invitrogen, USA) with random primers. qRT-PCR reactions used SYBR green master mix with the Real-Time PCR Detection systems (Bio-Rad, USA). Primers for qRT-PCR are (forward) 5′-[…]-3′ (SEQ ID NO: 1) and (reverse) 5′-[…]-3′ (SEQ ID NO: 2) for p53, (forward) 5′-TGTCCGTCAGAACCCATG-3′ (SEQ ID NO: 3) and (reverse) 5′-[…]-3′ (SEQ ID NO: 4) for p21, (forward) 5′-[…]-3′ (SEQ ID NO: 5) and (reverse) 5′-[…]-3′ (SEQ ID NO: 6) for Puma, (forward) 5′-[…]-3′ (SEQ ID NO: 7) and (reverse) 5′-[…]-3′ (SEQ ID NO: 8) for Noxa, (forward) 5′-CTGGGCTACACTGAGCACC-3′ (SEQ ID NO: 9) and (reverse) 5′-[…]-3′ (SEQ ID NO: 10) for Gapdh. Target gene expression levels were normalized with Gapdh.

MDM2 = experiment: Phosphorylation Western blot; assay type: cell-based, human; settings: SW480 cells
Description: as §1

[4] = Body weight and toxicity in xenograft mice; assay type: in vivo; settings: 45 mg/kg i.p. every 5 days
Description: CRL nude mice (female, 4-6 weeks old) were inoculated s.c. in the opposite flanks with 5 million DLD-1 or p73 knock-down DLD-1 cells in an equal volume of martrigel. Treatment with NSC59984 (i.p. injection) was initiated when the tumor masses reached a size of 3-5 mm. NSC59984 (45 mg/kg) was injected by i.p. route every 5 days. Fifteen days after treatment, the mice were euthanized using an institutional animal care and use committee-approved animal protocol.

[5] = HCT116 and p53-null HCT116 cells

CN1CCN(C(=O)/C=C/c2ccc([N+](=O)[O-])o2)CC1 [NSC59984, (E)-1-(4-methylpiperazin-1-yl)-3-(5-nitrofuran-2-yl)prop-2-en-1-one]
1/slope of dose-dependent p53-responsive reporter bioluminescence ([1]; DLD-1 (mutant p53 S241F)): 29.75 | 1/slope of dose-dependent p53-responsive reporter bioluminescence ([1]; SW480 (mutant p53 R273H, P309S)): 31.37 | p53-responsive bioluminescence ([1]; SW480 cells, 10 μM): increases | 1/slope of dose-dependent p53-responsive reporter bioluminescence ([1]; p53-null HCT116 cells): 102.9 | p53-responsive bioluminescence ([1]; p53-null HCT116 cells, increasing doses): slightly induced | p53-responsive bioluminescence ([1]; p73-overexpressing (Ad-p73) SW480 cells vs wild-type p53-overexpressing SW480 cells, 8 hr): significantly increased | NSC59984-induced p53-responsive bioluminescence ([1]; p73 knock-down SW480 cells, 8 hr): abrogated | 1/slope of dose-dependent p53-responsive reporter bioluminescence ([1]; wild-type p53-expressing HCT116 cells): 328.4 | p53-responsive bioluminescence ([1]; wild-type p53-expressing HCT116 cells, increasing doses): no significant increase | p21 protein (p21, Puma, DR5 and Noxa; [5]): up-regulated | protein levels of Puma, DR5 and Noxa (p21, Puma, DR5 and Noxa; [5]): not up-regulated | protein levels of p21, Puma, Noxa and DR5 (p21, Puma, DR5 and Noxa; SW480 and DLD-1 cells, increasing doses, 8 hr): significantly up-regulated | up-regulation of endogenous p21, Puma, DR5 and Noxa proteins (p21, Puma, DR5 and Noxa; p73 knock-down DLD-1 cells, 8 hr): reduced by p73 knock-down | Sub-G1 DNA content (RXF393 cells): 8.7% | sub-G1 DNA content (cancer cells; 25 μM): 26-56% | cells with sub-G1 content (cancer cells; 50 μM): 55-93% | sub-G1 DNA content increase (normal cells): not in normal cells | Sub-G1 DNA content (DLD-1 cells; 50 μM, 8 hours, DLD-1): 8.2% | percentage of cells with sub-G1 content (DLD-1 cells; DLD-1 cells, 72 hr): increased | effect on percentage of cells with sub-G1 content (DLD-1 cells; p73 knock-down DLD-1 cells, 72 hr): significantly reduced | γH2AX (γH2AX; HCT116 cells, 8 hours, 12 μM): increase of γH2AX | γH2AX (γH2AX; SW480 and DLD-1 cancer cells, within 24 hr, up to 50 μM): No γH2AX was found | total mutant p53 protein degraded (mutant p53 [2]; DLD-1 and RXF393 cells, 50 μM): 25-50% | mutant p53 protein level (mutant p53 [2]; SW480, DLD-1, Hop92 and RXF393 cells, 8 hr, dose-dependent): down-regulated | wild-type p53 protein (wild-type p53; HCT116 cancer cells, 25 and 50 μM): up-regulated | wild-type p53 protein (wild-type p53; MRC-5 normal cells, 50 μM): up-regulated | ubiquitination of mutant p53 (mutant p53 [3]): increased ubiquitination | p53 mRNA (mutant p53 mRNA): not decreased | phosphorylation of MDM2 (MDM2): phosphorylated at Ser166 | mouse body weights [4]: did not cause an obvious change | toxic effect in mice ([4]; tested dose): no overt toxic effect
